Consider 1 molecule from patent US11426422B2, “SHP2 inhibitors and methods of use thereof” (Research Development Foundation, priority 2018, dated 2022).

The test system of series [1] is HepG2 cells expressing IR-GFP mutants. Briefly: cellular localization of IR-GFP mutants in HepG2 cells after inhibitors. The note with it: starved 14 h, inhibitors 4 h, no insulin. It counts as cell-based. The source says: FIGS. 4A-E. Dysregulation of IR endocytosis as a potential contributing factor to human insulin resistance syndromes. (FIG. 4A) Representative images of liver specimens from human non-diabetes and diabetes patients stained with DAPI (blue) and anti-IR (red) and anti-ZO-1 (green) antibodies. Scale bars, 40 μm. (FIG. 4B) Quantification of the percentage of cells with positive IR PM signals in liver specimens in FIG. 4A (mean±SD; *p<0.0001). (FIG. 4C) HepG2 cells stably expressing IR-GFP R1020Q, V1054M, A1075D, V1086E, or I1143T were serum starved and stained with anti-GFP and anti-RAB7 antibodies. Scale bar, 5 μm. (FIG. 4D) Quantification of the ratios of PM and IC IR-GFP signals of cells in FIG. 4C (mean±SD; *p<0.0001). (FIG. 4E) Targeting feedback regulation of IR endocytosis for diabetes treatment. Left panel depicts the feedback regulation of IR endocytosis by ERK1/2 and SHP2 during unperturbed insulin signaling.
FIGS. 9A-D. Characterization of IR mutations found in human patients. (FIG. 9A) HepG2 cells expressing IR-GFP Class I mutants (P997T, V1012M, A1055V, K1095E, R1119Q, H1157R, R1191Q, Y1361C, or R1378Q) were starved for 14 h, treated with the indicated inhibitors for 4 h, and stained with anti-GFP (IR; green) and DAPI (blue). Scale bar, 5 m. (FIG. 9B) HepG2 cells expressing IR-GFP Class II mutants (R1020Q, V1054M, A1075D, V1086E, or I1143T) were analyzed as described in FIG. 9A. (FIG. 9C) HepG2 cells expressing IR-GFP Class III mutants (A1162E or W1220L) were analyzed as described in A. (FIG. 9D) HepG2 cells expressing IR-GFP WT, R1020Q, or V1054M were serum starved for 14 h and treated with DMSO or 80 μM Dynasore for 4 h. Cell lysates were blotted with the indicated antibodies.
Mutations of IR are known to cause inherited severe insulin resistance syndromes, but the mechanisms by which these mutations affect IR function have not been systematically explored. HepG2 cell lines were generated which stably expressed IR mutants fused to GFP, and the subcellular localization of these IR-GFP proteins was examined (FIGS. 9A-C and Table 1).
There were three distinct classes of IR mutants based on their subcellular localization in the unstimulated state. Class I mutants localized to the PM. […] Thus, certain IR mutations found in human insulin resistance syndromes perturbs IR kinase regulation and causes premature IR endocytosis.
Cellular localization of IR mutants was examined after inhibiting the SHP2 or MAPK pathways (FIGS. 4C-D, and FIGS. 9A-C).
Indirect immunofluorescence microscopy was performed on cells grown on coverslips and fixed in cold methanol at −20° C. for 10 min. The fixed cells were incubated with PBS for 30 min and 3% BSA in 0.1% PBST for 1 h, and then treated with diluted antibodies in 0.3% BSA in 0.1% PBST at 4° C. overnight. After being washed, cells were incubated with fluorescent secondary antibodies and mounted on microscope slides in ProLong Gold Antifade reagent with DAPI (Invitrogen). Images of fixed cells were acquired as a series of 0.4 m stacks with a DeltaVision® system (Applied Precision®, Issaquah, Wash.). Raw images were deconvolved using the iterative algorithm implemented in the softWoRx® software (Applied Precision®, Issaquash, Wash.). The central section of a 0.4 μm z-stack containing 3 contiguous focal planes was used for quantification. The cell edges were defined with Image J. The whole cell signal intensity (WC) and intracellular signal intensity (IC) were measured. The plasma membrane signal intensity (PM) was calculated by subtracting IC from WC. Identical exposure times and magnifications were used for all comparative analyses.

Series [2] can be described thus: body weight of HFD-fed mice. To be noted: 60 mg/kg daily oral gavage; 7 days post administration. It counts as in vivo. As for the experimental part: FIGS. 8A-B. Effects of the SHP2 inhibitor on body weight and insulin signaling in HFD-WT mice. […] Mean±SD. (FIG. 8B) Quantification of the relative band intensities in FIG. 3E. Mean±SD; n=3 independent experiments.
(§1) The IR staining at the PM in liver sections from mice fed with HFD was weak, and insulin stimulation further reduced it and caused IR endocytosis (FIGS. 3C and D).
(§2) All animals were maintained in a specific antigen-free barrier facility with 12 h light/dark cycles (6 AM on and 6 PM off). Mice were fed a standard rodent chow (2016 Teklad Global 16% protein rodent diet, Harlan Laboratories). For inducing insulin resistance, C57BL/6J (Stock No. 000664, Jackson laboratory) were fed a high-fat (60%) diet (OpenSource Diets, Cat. No. D12492). For in vivo pharmacological assays, 6-8-weeks-old male mice were fed high-fat diet (HFD) for 5 weeks. Two days before drug administration, mice were switched to normal chow. […] For glucose tolerance test, mice were fasted for 14 h, and their blood glucose levels (T=0) were measured with tail bleeding using a glucometer (AlphaTRAK®). […] Blood glucose levels were measured at 15, 30, 60, and 120 min after glucose injection. For insulin tolerance test, mice fasted for 4 h were injected intraperitoneally with recombinant human insulin (Eli Lilly) at 1 U/kg body weight, and their blood glucose levels were measured at 0, 15, 30 and 60 min after injection.

In the next series the test system is HFD-fed mice. Nature of the series: insulin tolerance test in HFD-fed mice. It counts as in vivo. To be noted: 60 mg/kg daily oral gavage for 6 days; male mice fed HFD 5 weeks; insulin 1 U/kg. Here is the method: (FIG. 3A) Glucose tolerance test in 14 h fasted male mice fed a HFD for 5 weeks. […] At 1 day after drug treatment, glucose tolerance test was performed. Mean±SEM. (FIG. 3B) Insulin tolerance test of mice treated as described in FIG. 3A. Mean±SEM. […] The liver sections were stained with anti-IR (red) and DAPI (blue). Scale bars, 5 μm. (FIG. 3D) Quantification of the ratios of PM and IC IR signals of the livers in C (mean±SD; *p<0.0001). […] Cell lysates were blotted with the indicated antibodies.
as §1
as §2, with “Laboratories).” for “Laboratories). For inducing insulin resistance, C57BL/6J (Stock No. 000664, Jackson laboratory) were fed a high-fat (60%) diet (OpenSource Diets, Cat. No. D12492). For in vivo pharmacological assays, 6-8-weeks-old male mice were fed high-fat diet (HFD) for 5 weeks. Two days before drug administration, mice were switched to normal chow.”

Molecules are shown by their SMILES.

With `CC1(N)CCN(c2cnc(-c3cccc(Cl)c3Cl)c(N)n2)CC1` [SHP099], the “PM levels of Class I and III IR mutants” value in series [1] is “not those of Class I and III IR mutants”. Further, the “PM levels of Class II IR mutants” value in series [1] (R1020Q, V1054M, A1075D, V1086E, I1143T) was “significantly enhanced the PM levels of Class II IR mutants”. Also, the body weight entry in series [2] is “did not change the body weight”. The insulin sensitivity result in the series with HFD-fed mice is reported as “markedly increased”.
